Source: patent US11319322B2, “Substituted aryl ether compound, preparation method thereof, pharmaceutical composition and use thereof” (Xiamen University, priority 2017, dated 2022)

Assays:
Type in all cases: cell-based
CCDC6-RET-BaF3 = target: T1, CCDC6-RET-BaF3 (Homo sapiens, UniProt P07949); assay: Growth inhibition of CCDC6-RET-BaF3 cells stably transfected with kinase (MTS); settings: 48 h, read-out: CCDC6-RET (IC50/nM)
T1 construct: fused on or other part: Q16204 (Coiled-coil domain-containing protein 6)
T1 sequence (P07949 whole entry, change not shown, the tested form may be a part): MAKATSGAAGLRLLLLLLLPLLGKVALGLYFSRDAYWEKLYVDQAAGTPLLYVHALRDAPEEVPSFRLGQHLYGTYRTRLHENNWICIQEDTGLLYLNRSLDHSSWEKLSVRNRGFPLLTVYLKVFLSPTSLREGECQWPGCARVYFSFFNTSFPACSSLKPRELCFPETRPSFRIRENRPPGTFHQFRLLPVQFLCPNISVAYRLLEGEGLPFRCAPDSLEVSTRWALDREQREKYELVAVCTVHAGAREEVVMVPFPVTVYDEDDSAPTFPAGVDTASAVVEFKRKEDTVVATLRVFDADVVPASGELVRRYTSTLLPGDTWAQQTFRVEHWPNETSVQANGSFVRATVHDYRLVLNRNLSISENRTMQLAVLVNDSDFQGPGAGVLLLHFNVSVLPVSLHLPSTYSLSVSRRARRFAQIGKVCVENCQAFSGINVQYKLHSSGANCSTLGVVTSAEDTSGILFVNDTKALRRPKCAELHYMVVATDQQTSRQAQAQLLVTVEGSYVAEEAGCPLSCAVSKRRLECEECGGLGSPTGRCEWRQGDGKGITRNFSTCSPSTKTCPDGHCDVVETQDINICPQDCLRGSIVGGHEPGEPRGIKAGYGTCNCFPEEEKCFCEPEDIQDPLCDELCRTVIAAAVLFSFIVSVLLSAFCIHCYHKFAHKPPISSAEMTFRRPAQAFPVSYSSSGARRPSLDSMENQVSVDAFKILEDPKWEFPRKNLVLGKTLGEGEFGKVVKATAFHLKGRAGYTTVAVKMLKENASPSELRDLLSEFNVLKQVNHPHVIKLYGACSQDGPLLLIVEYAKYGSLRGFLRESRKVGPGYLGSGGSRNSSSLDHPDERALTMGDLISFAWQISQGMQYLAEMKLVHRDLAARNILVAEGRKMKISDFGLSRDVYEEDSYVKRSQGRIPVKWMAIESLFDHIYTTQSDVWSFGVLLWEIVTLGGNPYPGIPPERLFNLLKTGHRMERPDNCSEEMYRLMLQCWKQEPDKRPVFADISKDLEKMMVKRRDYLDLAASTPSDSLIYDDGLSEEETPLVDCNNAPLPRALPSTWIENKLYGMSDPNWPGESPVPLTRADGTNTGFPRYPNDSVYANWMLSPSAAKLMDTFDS
In short: (§1)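 BaF3 cells stably expressing CCDC6-RET or KIF5B-RET, or parental BaF3, 2×10^4 cells/well, treated 48 h at 37 °C with 8-point 1:3 dilutions from 10 μM (0.1% DMSO). MTS/PES added 1–4 h, OD490 read; inhibition versus DMSO and blank gave IC50.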

KIF5B-RET-BaF3 = target: T2, KIF5B-RET-BaF3 (Homo sapiens, UniProt P07949); assay: Growth inhibition of KIF5B-RET-BaF3 cells stably transfected with kinase (MTS); settings: 48 h, read-out: KIF5B-RET (IC50/nM)
T2 construct: fused on or other part: P33176 (Kinesin-1 heavy chain)
T2 sequence (P07949 whole entry, change not shown, the tested form may be a part): as above
In short: as §1

wild-type BaF3 = assay: Growth inhibition of wild-type BaF3 cells, broad-spectrum toxicity (MTS); settings: Mus musculus, 48 h, read-out: WT Ba/F3 (IC50/nM)
Procedure: Growth inhibitory activity of compounds on cell lines stably transfected with kinase
The activity of compounds against kinase RET is evaluated by their effect of inhibiting growth of cell lines stably transfected with kinase CCDC6-RET-BaF3, KIF5B-RET-BaF3, and wild-type BaF3 (Proc. Natl. Acad. Sci. USA., 2006, 103, 3153-8.). The growth of the cell lines stably transfected with kinase CCDC6-RET-BaF3, KIF5B-RET-BaF3 depends on their kinase activity. If a compound can inhibit the activity of the kinase RET per se or the activity of the RET signaling pathway, the compound can inhibit the growth of BaF3 cells stably transfected with kinase. […] Therefore, a larger ratio between IC50 of a compound to wild-type BaF3 and IC50 of the compound to the cell lines stably transfected with kinase CCDC6-RET-BaF3, KIF5B-RET-BaF3 indicates better targeting.
The specific test method is given as follows:
1) Medium: DMEM (Dulbecco's modified eagle medium) or RPMI 1640 (containing 10% fetal bovine serum, 100 μg/mL ampicillin, 100 μg/mL streptomycin).
2) Reagents: MTS reaction solution (containing 2 mg/mL of MTS [3-(4,5-dimethylthiazol-2-yl)-5-(3-carboxymethoxyphenyl)-2-(4-sulfophenyl)-2H-tetrazolium, inner Salt]; 100 μg/mL PES (phenazine […])).
3) Compound test: cells stably transfected with kinase (CCDC6-RET-BaF3, KIF5B-RET-BaF3) or wild-type BaF3 cells (2×10^4 cells/well) were incubated into a 96-well culture plate, the volume of cell culture fluid was 90 μL, and then 10 μL of the compound at each gradient concentration was added (the highest concentration was 10 μM, which was diluted stepwise by ⅓, and 8 concentration points were set in total; the system contained 0.1% DMSO (dimethyl sulfoxide)). The cell plate with uniformly mixed compound was cultured in a cell culture incubator (37° C.; 5% CO2) for 48 h, then 20 μL of MTS reaction solution was added, uniformly mixed and incubated in the cell culture incubator (37° C.; 5% CO2) for 1-4 hr, OD values at 490 nm were measured by a microplate reader (VARIOSKAN FLASH, Thermo). Three parallels were set in each group of experiments, with 0.1% (a final concentration) DMSO as a negative control, and a medium without cells or compounds as a blank control. The cell growth inhibition rate was calculated by the following formula: Cell growth inhibition rate %=1−(ODexperimental group−ODblank group)/(ODnegative group−ODblank group)×100%
4) IC50 calculation: The semi-inhibitory concentration of the compound acting on cell growth was calculated using GradPad Prism 5 software according to the measured cell growth inhibition rate.

SMILES | GI50 (CCDC6-RET-BaF3) [nM] | GI50 (KIF5B-RET-BaF3) [nM] | IC50 (wild-type BaF3) [nM]
Cn1cnc2c(Oc3cccc(C(=O)Nc4cccc(C(F)(F)F)c4)c3)nc(-c3ccncc3)nc21 [I-d-2] | 1540 | 5710 | > 10000
Cc1ccc(Oc2nc(-c3ccccc3)nc3c2ncn3C)cc1NC(=O)c1ccc(CN2CCN(C)CC2)c(C(F)(F)F)c1 [I-j-2] | 2130 | 1580 | 2110
Cc1ccc(Oc2nc(-c3ccc(Cl)cc3)nc3c2ncn3C)cc1NC(=O)c1ccc(CN2CCN(C)CC2)c(C(F)(F)F)c1 [I-j-3] | 1420 | 1430 | 1770
Cc1ccc(Oc2nc(-c3ccc(O)cc3)nc3c2ncn3C)cc1NC(=O)c1ccc(CN2CCN(C)CC2)c(C(F)(F)F)c1 [I-j-4] | 1010 | 1610 | 1790
Cc1ccc(Oc2nc(-c3ccc(N)cc3)nc3c2ncn3C)cc1NC(=O)c1ccc(CN2CCN(C)CC2)c(C(F)(F)F)c1 [I-j-5] | 1880 | 2370 | 4200
Cc1ccc(Oc2nc(-c3ccoc3)nc3c2ncn3C)cc1NC(=O)c1ccc(CN2CCN(C)CC2)c(C(F)(F)F)c1 [I-j-6] | 221 | 1180 | 4220
CN1CCN(Cc2ccc(NC(=O)c3cccc(Oc4nc(-c5cccnc5)nc5c4ncn5C)c3)cc2C(F)(F)F)CC1 [I-l-2] | 3610 |  | 1360
Cc1ccc(NC(=O)c2cccc(C(F)(F)F)c2)cc1Oc1nc(-c2ccncc2)nc2nn(C)cc12 [IV-b-2] | 5870 | 4170 | 
Cc1ccc(Oc2nc(-c3ccncc3)nc3nn(C)cc23)cc1NC(=O)c1cccc(C(F)(F)F)c1 [IV-c-2] | 1680 | 2840 | 
Cc1ccc(Oc2nc(-c3ccccc3)nc3nn(C)cc23)cc1C(=O)Nc1ccc(CN2CCN(C)CC2)c(C(F)(F)F)c1 [IV-n-3] | 4150 | 3540 | 
Cc1ccc(Oc2nc(-c3cccc(Cl)c3)nc3nn(C)cc23)cc1C(=O)Nc1ccc(CN2CCN(C)CC2)c(C(F)(F)F)c1 [IV-n-4] | 3900 | 1710 | 
Cc1ccc(Oc2nc(-c3ccc(Cl)cc3)nc3nn(C)cc23)cc1C(=O)Nc1ccc(CN2CCN(C)CC2)c(C(F)(F)F)c1 [IV-n-5] | 2960 | 2320 | 
Cc1ccc(Oc2nc(-c3cccc(O)c3)nc3nn(C)cc23)cc1C(=O)Nc1ccc(CN2CCN(C)CC2)c(C(F)(F)F)c1 [IV-n-6] | 4310 | 4230 | 
Cc1ccc(Oc2nc(-c3ccc(O)cc3)nc3nn(C)cc23)cc1C(=O)Nc1ccc(CN2CCN(C)CC2)c(C(F)(F)F)c1 [IV-n-7] | 2810 | 3940 | 
Cc1ccc(Oc2nc(-c3cccc(N)c3)nc3nn(C)cc23)cc1C(=O)Nc1ccc(CN2CCN(C)CC2)c(C(F)(F)F)c1 [IV-n-8] | 2090 | 1620 | 
Cc1ccc(Oc2nc(-c3ccc(N)cc3)nc3nn(C)cc23)cc1C(=O)Nc1ccc(CN2CCN(C)CC2)c(C(F)(F)F)c1 [IV-n-9] | 1830 | 1570 | 
Cc1ccc(Oc2nc(-c3ccoc3)nc3nn(C)cc23)cc1C(=O)Nc1ccc(CN2CCN(C)CC2)c(C(F)(F)F)c1 [IV-n-10] | 2160 | 1840 | 
Cc1ccc(Oc2nc(-c3ccsc3)nc3nn(C)cc23)cc1C(=O)Nc1ccc(CN2CCN(C)CC2)c(C(F)(F)F)c1 [IV-n-11] | 5220 | 4210 | 
CN1CCN(Cc2ccc(NC(=O)c3cc(Oc4nc(-c5cccnc5)nc5nn(C)cc45)ccc3Cl)cc2C(F)(F)F)CC1 [IV-o-1] | 1980 | 1720 | 
CN1CCN(Cc2ccc(NC(=O)c3cc(Oc4nc(-c5ccncc5)nc5nn(C)cc45)ccc3Cl)cc2C(F)(F)F)CC1 [IV-o-2] | 88.6 | 12.1 | 
CN1CCN(Cc2ccc(NC(=O)c3cc(Oc4nc(-c5ccccc5)nc5nn(C)cc45)ccc3Cl)cc2C(F)(F)F)CC1 [IV-o-3] | 4310 | 4180 | 
CN1CCN(Cc2ccc(NC(=O)c3cc(Oc4nc(-c5cccc(Cl)c5)nc5nn(C)cc45)ccc3Cl)cc2C(F)(F)F)CC1 [IV-o-4] | 4280 | 3110 | 

SMILES | GI50 (CCDC6-RET-BaF3) [nM] | GI50 (KIF5B-RET-BaF3) [nM] | IC50 (wild-type BaF3) [nM]
CN1CCN(Cc2ccc(NC(=O)c3cc(Oc4nc(-c5ccc(Cl)cc5)nc5nn(C)cc45)ccc3Cl)cc2C(F)(F)F)CC1 [IV-o-5] | 4090 | 3390 | 
CN1CCN(Cc2ccc(NC(=O)c3cc(Oc4nc(-c5cccc(O)c5)nc5nn(C)cc45)ccc3Cl)cc2C(F)(F)F)CC1 [IV-o-6] | 4020 | 3400 | 
CN1CCN(Cc2ccc(NC(=O)c3cc(Oc4nc(-c5ccc(O)cc5)nc5nn(C)cc45)ccc3Cl)cc2C(F)(F)F)CC1 [IV-o-7] | 1510 | 1610 | 
CN1CCN(Cc2ccc(NC(=O)c3cc(Oc4nc(-c5cccc(N)c5)nc5nn(C)cc45)ccc3Cl)cc2C(F)(F)F)CC1 [IV-o-8] | 172 | 152 | 
CN1CCN(Cc2ccc(NC(=O)c3cc(Oc4nc(-c5ccc(N)cc5)nc5nn(C)cc45)ccc3Cl)cc2C(F)(F)F)CC1 [IV-o-9] | 4810 | 4360 | 
CN1CCN(Cc2ccc(NC(=O)c3cc(Oc4nc(-c5ccoc5)nc5nn(C)cc45)ccc3Cl)cc2C(F)(F)F)CC1 [IV-o-10] | 4290 | 3760 | 
CN1CCN(Cc2ccc(NC(=O)c3cc(Oc4nc(-c5ccsc5)nc5nn(C)cc45)ccc3Cl)cc2C(F)(F)F)CC1 [IV-o-11] | 3030 | 1620 | 
Cc1ccc(Oc2cc(-c3cn[nH]c3)nc3[nH]ccc23)cc1C(=O)Nc1ccc(CN2CCN(C)CC2)c(C(F)(F)F)c1 [V-n-12] | 566 | 673 | 
Cc1ccc(Oc2cc(-c3ccncc3)nc3c2ccn3C)cc1C(=O)Nc1ccc(CN2CCN(C)CC2)c(C(F)(F)F)c1 [V-n-16] | 472 | 388 | 
Cc1ccc(Oc2cc(-c3ccncc3)nc3[nH]ccc23)cc1C(=O)Nc1cc(CN2CCN(C)CC2)cc(C(F)(F)F)c1 [V-r-1] | 2960 | 2810 | 
Cc1ccc(NC(=O)c2ccc(CN3CCN(C)CC3)c(C(F)(F)F)c2)cc1Oc1nc(-c2ccncc2)nc2ccsc12 [VI-i-2] | 5700 | 7420 | 
CN1CCN(Cc2ccc(C(=O)Nc3cccc(Oc4cc(-c5ccncc5)nc5sccc45)c3)cc2C(F)(F)F)CC1 [VII-h-2] | 637 | 1080 | 
Cc1ccc(NC(=O)c2ccc(CN3CCN(C)CC3)c(C(F)(F)F)c2)cc1Oc1cc(-c2ccncc2)nc2sccc12 [VII-i-2] | 1360 | 1330 | 
Cc1ccc(Oc2cc(-c3cccnc3)nc3sccc23)cc1NC(=O)c1ccc(CN2CCN(C)CC2)c(C(F)(F)F)c1 [VII-j-1] | 811 | 1280 | 
Cc1ccc(Oc2cc(-c3ccncc3)nc3sccc23)cc1NC(=O)c1ccc(CN2CCN(C)CC2)c(C(F)(F)F)c1 [VII-j-2] | 95.6 | 189 | 
CN1CCN(Cc2ccc(NC(=O)c3cccc(Oc4cc(-c5cccnc5)nc5sccc45)c3)cc2C(F)(F)F)CC1 [VII-l-1] | 1020 | 1350 | 
CN1CCN(Cc2ccc(NC(=O)c3cccc(Oc4cc(-c5ccncc5)nc5sccc45)c3)cc2C(F)(F)F)CC1 [VII-l-2] | 215 | 315 | 
Cc1ccc(Oc2cc(-c3cccnc3)nc3sccc23)cc1C(=O)Nc1ccc(CN2CCN(C)CC2)c(C(F)(F)F)c1 [VII-n-1] | 1690 | 1780 | 
Cc1ccc(Oc2cc(-c3ccncc3)nc3sccc23)cc1C(=O)Nc1ccc(CN2CCN(C)CC2)c(C(F)(F)F)c1 [VII-n-2] | 221 | 405 | 
CN1CCN(Cc2ccc(NC(=O)c3cc(Oc4cc(-c5cccnc5)nc5sccc45)ccc3Cl)cc2C(F)(F)F)CC1 [VII-o-1] | 1570 | 1630 | 
CN1CCN(Cc2ccc(NC(=O)c3cc(Oc4cc(-c5ccncc5)nc5sccc45)ccc3Cl)cc2C(F)(F)F)CC1 [VII-o-2] | 326 | 499 | 
